The labels stand for the following.
B1: AHR siRNA: pool of four siRNA sequences against human AHR (Thermo Scientific) (nucleic acid)
guide 1: GCAAGUUAAUGGCAUGUUU
guide 2: GAACUCAAGCUGUAUGGUA
guide 3: GCACGAGAGGCUCAGGUUA
guide 4: GCAACAAGAUGAGUCUAUU
modifications: pool of four siRNAs, further chemistry not given here

Where only a bound is given, the exact number is not on record here.

These results are taken from patent US20150126507A1, “COMPOUNDS TO TREAT HEARING LOSS” (Fate Therapeutics, Inc., priority 2013, published 2015).

The first data set relates to P5 rat cochlear explants. The experiment in a line: Tobramycin treatment of cochlear explants, hair cell and supporting cell marker mRNA. It is filed as cell-based. The settings on record: tobramycin 1 mM, 3 days. On the procedure: The ten selected hits of Example 43 were assayed for the ability to induce Atoh1 expression in primary cultured cochlear explants from the neonatal rat. Postnatal day 5 (P5) rat cochlear explants were cultured with the ototoxic aminoglycoside antibiotic, tobramycin (1 mM), for 3 days prior to drug testing, as an in vitro model of drug-induced hearing loss. […] See, e.g., Ruedi, et al., Larynoscope 62:333-357 (1952). After the 3 day tobramycin pretreatment, the cochlear explants were cultured with the compounds of Example 43 or DMSO vehicle for an additional 2 days. Atoh1 expression levels, measured by qRT-PCR and normalized to ribosomal 18S expression, after hit compound treatments are shown in FIG. 3.
For the molecule `NC[C@H]1O[C@H](O[C@H]2[C@H](O)[C@@H](O[C@H]3O[C@H](CO)[C@@H](O)[C@H](N)[C@H]3O)[C@H](N)C[C@@H]2N)[C@H](N)C[C@@H]1O` [tobramycin], the “Sox2 mRNA (supporting cell marker)” value is listed as “without reducing”, the “reduction of Atoh1 mRNA level” value was “more than 80%” and the “reduction of MYO7A mRNA level” value is “more than 80%”.

The test system of another data set is Atoh1 enhancer reporter in HEK293 cells. As to the kind of experiment: Atoh1 reporter cell line, firefly luciferase normalized to renilla luciferase. In kind it is cell-based. The settings on record: Atoh1 reporter cell line treated with AHR agonists for 2 days. Here is the method:
FIG. 2. Dose response data for selected hits. Atoh1 reporter cells plated in 384 well plates were treated with test compounds or vehicle controls for 2 days. Firefly luciferase signal was measured and normalized to the renilla luciferase signal. Results from duplicate wells (circles and triangles) are expressed relative to normalized controls treated with DMSO.
A reporter cell line expressed in HEK293 cells in which Atoh1 enhancer elements flanked a minimal promoter driving firefly luciferase expression was created. Dose response data was generated in the reporter cell line. Atoh1 reporter cells plated in […] plates were treated with test compounds or vehicle controls for 2 days. Firefly luciferase signal was measured and normalized to the renilla luciferase signal.
For high-throughput screening, HEK293 cells were transduced with a lentiviral vector containing a concatamer of Atoh1 enhancer A and B elements, the Promega minP minimal promoter, firefly luciferase coding sequence and hygromycin selectable marker. After selection, the cells were transduced with a second lentiviral vector containing the EF1α constitutive promoter, Renilla luciferase and puromycin selectable marker. A clonal derivative expressing both transgenes was expanded and banked for screening.
A screening assay was done by plating 8000 cells/well in 384 well plates, and treating for 48 hours with 1 and 10 μM test compound in DMSO, vehicle control, or the GSK-3B inhibitor, BIO, as a positive control. Firefly and Renilla luciferase were measured sequentially using Dual-Glo (Promega) with an Envision multi-label plate reader (Perkin Elmer). Data were analyzed after normalizing firefly luciferase signals to Renilla luciferase signals. A primary screen of 50,000 diverse compounds identified 140 hits. […] 10 of these 41 hits were selected for further analysis
To confirm activity in the 10 selected hits, the test compounds were reassayed at 3.3×10^−9, 1×10^−8, 3.3×10^−8, 1×10^−7, 3.3×10^−7, 1×10^−6, 3.3×10^−6 and 1×10^−5 molar concentrations. […] Results from duplicate wells (circles and triangles) are expressed relative to normalized controls treated with DMSO.
On to `COC(=O)c1csc(C(=O)c2c[nH]c3ccccc23)n1` [ITE, reference compound], for which the Atoh1 reporter activity result was “stimulated Atoh1 reporter activity”.

Take `CN1C(=O)/C(=C2\Nc3ccccc3\C2=N/O)c2ccc(Br)cc21` [MeBIO, reference compound]: the Atoh1 reporter activity result is “stimulated Atoh1 reporter activity”.

For `Br.Cc1ccc(C(=O)Cn2c3c(sc2=N)CCCC3)cc1` [Pfithrin-α-hydrobromide, reference compound], the Atoh1 reporter activity entry is reported as “stimulated Atoh1 reporter activity”.

Still in this data set, the particulars now being: Homo sapiens, HEK293, 48 h, Atoh1 reporter HEK293 cells, treated 2 days, dose response; read-out: ED50 (the source's name).
Consider `Cc1c(C(=O)N(C)c2nccs2)oc2ccccc12` [Compound 1, N,3-dimethyl-N-(thiazol-2-yl)benzofuran-2-carboxamide], for which the EC50 is 1600 nM.

Take `CN(C(=O)c1cc2ccccc2o1)c1nccs1` [Compound 2, N-methyl-N-(thiazol-2-yl)benzofuran-2-carboxamide]: the EC50 is 700 nM.

As for `Cc1nc(NC(=O)c2oc3ccccc3c2C)sc1C` [Compound 3], the EC50 came out at 2700 nM.

`CCOC(=O)c1sc(NC(=O)c2oc3ccccc3c2C)nc1C` [Compound 5]: the EC50 was found to be 700 nM.

Consider `Cc1c(C(=O)Nc2nc(-c3ccccc3)cs2)oc2ccccc12` [Compound 6], for which the EC50 was found to be 1300 nM.

Consider `Cc1c(C(=O)Nc2nc(C(C)(C)C)cs2)oc2ccccc12` [Compound 7], for which the EC50 was 1300 nM.

Regarding `Cc1c(C(=O)Nc2nc(S(C)(=O)=O)cs2)oc2ccccc12` [Compound 8], the EC50 came to 1100 nM.

For the molecule `Cc1nc(NC(=O)c2oc3ccccc3c2C)sc1C(=O)N(C)C` [Compound 9], the EC50 came out at 1700 nM.

Turning to `COc1ccc2nc(NC(=O)c3oc4ccccc4c3C)sc2c1` [Compound 11], the EC50 is 700 nM.

Consider `Cc1c(C(=O)Nc2nc3ccc(Cl)cc3s2)oc2ccccc12` [Compound 12], for which the EC50 was determined as 600 nM.

Take `O=C(Nc1nccs1)c1cc2ccccc2o1` [Compound 13]: the EC50 is 400 nM.

For the molecule `COc1cccc2cc(C(=O)Nc3ncc(C)s3)oc12` [Compound 15], the EC50 was 1000 nM.

Consider `COc1cccc2cc(C(=O)Nc3nccs3)oc12` [Compound 16], for which the EC50 is 2700 nM.

For the molecule `O=C(Nc1nc2c(s1)CCCC2)c1cc2ccccc2o1` [Compound 17], the EC50 came out at 400 nM.

Turning to `Cc1c(C(=O)Nc2nccs2)oc2c1ccc1ccccc12` [Compound 18], the EC50 was greater than 3000 nM.

On to `Cc1c(C(=O)Nc2nccs2)oc2c(Cl)cccc12` [Compound 19], for which the EC50 worked out at 700 nM.

Regarding `COc1ccc2oc(C(=O)Nc3nc(CN4CCOCC4)cs3)c(C)c2c1` [Compound 21], the EC50 is 900 nM.

`CSCc1c(C(=O)Nc2nccs2)oc2ccccc12` [Compound 22]: the EC50 came out at 500 nM.

Take `CCOc1ccc2oc(C(=O)Nc3nccs3)c(C)c2c1` [Compound 23]: the EC50 turned out to be 500 nM.

In the case of `O=C(Nc1nccs1)c1oc2ccccc2c1COc1ccccc1` [Compound 24], the EC50 turned out to be 700 nM.

On to `COCc1c(C(=O)Nc2nccs2)oc2ccccc12` [Compound 25], for which the EC50 was 1700 nM.

On to `Cc1csc(N(C(=O)c2cc3ccccc3o2)c2ccccc2)n1` [Compound 26], for which the EC50 was greater than 3000 nM.

On to `Cc1cnc(NC(=O)c2cc3ccccc3o2)s1` [Compound 27], for which the EC50 is 200 nM.

For `CSCc1c(C(=O)Nc2nc(C)cs2)oc2ccccc12` [Compound 28], the EC50 was 1300 nM.

As to `CN(C(=O)c1cc2cccc(Br)c2o1)c1nccs1` [Compound 29], the EC50 was 1400 nM.

As to `O=C(Nc1nccs1)c1cc2cc(Br)ccc2o1` [Compound 30], the EC50 was greater than 3000 nM.

Take `Cc1c(C(=O)Nc2nccs2)oc2ccc(F)cc12` [Compound 31]: the EC50 was 600 nM.

On to `CCc1nc(NC(=O)c2oc3c(F)cccc3c2C)sc1C` [Compound 32], for which the EC50 was 1000 nM.

As for `Cc1cnc(NC(=O)c2oc3ccc(Br)cc3c2C)s1` [Compound 33], the EC50 stood at 400 nM.

Regarding `Cc1csc(NC(=O)c2oc3ccc(Br)cc3c2C)n1` [Compound 34], the EC50 was 1600 nM.

Regarding `COc1ccc2oc(C(=O)Nc3nc(C)cs3)c(C)c2c1` [Compound 35], the EC50 came to 500 nM.

For `Cc1c(C(=O)Nc2nccs2)oc2ccc(Br)cc12` [Compound 36], the EC50 worked out at 800 nM.

`Cc1csc(NC(=O)c2oc3ccc(F)cc3c2C)n1` [Compound 37]: the EC50 was 2300 nM.

`Cc1csc(NC(=O)c2oc3c(Cl)cccc3c2C)n1` [Compound 38]: the EC50 was greater than 3000 nM.

Take `CC(=O)c1sc(NC(=O)c2cc3ccccc3o2)nc1C` [Compound 39]: the EC50 worked out at 500 nM.

`Cc1c(C(=O)Nc2nccs2)oc2ccc(Cl)cc12` [Compound 41]: the EC50 was 400 nM.

Another data set has as its target T1, AHR (Homo sapiens, UniProt P35869).
T1 construct: HEK293 cells were transduced with a lentiviral vector containing a concatamer of Atoh1 enhancer A and B elements; endogenous in cells; host or cells: HEK293-derived Atoh1 reporter cell line
T1 sequence (P35869 11-848): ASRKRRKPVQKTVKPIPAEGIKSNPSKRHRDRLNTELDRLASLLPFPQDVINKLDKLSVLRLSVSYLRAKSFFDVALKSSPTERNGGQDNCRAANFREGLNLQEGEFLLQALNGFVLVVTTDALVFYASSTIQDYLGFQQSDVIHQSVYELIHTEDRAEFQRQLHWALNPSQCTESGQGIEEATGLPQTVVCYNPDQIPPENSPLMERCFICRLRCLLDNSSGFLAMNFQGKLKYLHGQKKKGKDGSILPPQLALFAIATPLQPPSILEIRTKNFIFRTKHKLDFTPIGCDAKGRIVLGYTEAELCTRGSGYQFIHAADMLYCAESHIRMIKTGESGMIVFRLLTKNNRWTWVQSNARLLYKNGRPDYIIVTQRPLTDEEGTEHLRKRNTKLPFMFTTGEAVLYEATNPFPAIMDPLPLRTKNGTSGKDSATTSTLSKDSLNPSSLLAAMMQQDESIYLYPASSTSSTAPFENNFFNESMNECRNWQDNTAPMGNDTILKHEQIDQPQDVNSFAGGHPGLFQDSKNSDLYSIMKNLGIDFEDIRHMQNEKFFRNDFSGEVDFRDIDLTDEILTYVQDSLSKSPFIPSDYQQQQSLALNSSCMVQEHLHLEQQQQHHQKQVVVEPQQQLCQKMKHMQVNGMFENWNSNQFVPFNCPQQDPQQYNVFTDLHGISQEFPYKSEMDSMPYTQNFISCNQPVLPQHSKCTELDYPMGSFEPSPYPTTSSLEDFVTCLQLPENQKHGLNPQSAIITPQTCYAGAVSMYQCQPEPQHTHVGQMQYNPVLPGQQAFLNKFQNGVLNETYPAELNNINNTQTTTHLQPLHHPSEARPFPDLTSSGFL
As to the kind of experiment: AHR siRNA analysis in Atoh1 reporter cell line, luciferase assay and qRT-PCR. In kind it is cell-based. The settings on record: 75 nM siRNA, 5 μM Compound 4 for 48 hours, luciferase assay. On the procedure: An siRNA analysis was used to determine if AHR is required for the Atoh1-inducing activity of Compound 4. One day before transfection, the Atoh1 reporter cell line was plated at 1.5×10^5 cells/well in a 24-well plate. The cells were transfected with 75 nM on-target plus human AHR siRNA SMART pool or Non-target pool using DharmaFECT1 (Thermo Scientific). AHR siRNA sequences in the SMART pool were GCAAGUUAAUGGCAUGUUU, GAACUCAAGCUGUAUGGUA, GCACGAGAGGCUCAGGUUA, and GCAACAAGAUGAGUCUAUU. Mock-transfected cells served as an additional negative control. 16 hours after transfection, media were replaced with fresh complete medium containing 5 μM Compound 4 or DMSO. After 48 hours of treatment, cells were analyzed by luciferase assay and qRT-PCR.
AHR siRNA reduced AHR expression by 69%, while the control siRNA was without effect. […] Results are expressed in FIGS. 6A and 6B as the average±S.D. for triplicate wells. […] See, e.g., Ben-Arie, et al., Human Mol. Genetics 5(9):1207-1216 (1996).
Background: In qPCR the cycle at which signal appears reflects the starting amount.
Regarding B1, the “reduction of Compound 4-mediated Atoh1 reporter activity” value amounted to 54%.

Staying with this data set, now noted: 75 nM siRNA, qRT-PCR.
For B1, the “reduction of AHR expression” value is 69%.
